Experimental data published in patent US10154813B1, “Method and apparatus for patient skin color monitoring and drug efficacy measurement” (priority 2017, dated 2018).

Experiments:
[1] = tested on: coronary arteries; conditions: cited from earlier work
[2] = tested on: skin capillaries; assay: Topical wet run solution on skin: capillary dilation / red shift; assay type: in vivo, human; conditions: applied to skin surface
Source text: The inventor's work has identified previously unknown differences in the reactions of healthy and unhealthy individuals to acetylcholine and other vasodilative substances when applied to the skin. […] Additional efficacious wet run solutions include bradykinin, adenosine, vasopressin, nitroglycerin, sildenafil, serotonin, and thrombin.
“Wet runs” can be performed according to the same general protocol described above for dry runs, which are incorporated herein but will not be fully repeated for brevity. The difference is that for wet runs the skin area being measured with the color detector is wetted with a chemical solution (a.k.a. “Wet run solution”). For example, a solution of one or more chemicals (e.g. acetylcholine and/or thrombin) in water, alcohol, petroleum jelly, or saline. The solution can be applied by wiping or covering the area with a wet gauze pad. The solution may be applied once at the beginning of the procedure before the color detector is positioned on the skin, or applied more than once throughout the procedure. Suspensions of effective chemicals (as opposed to solutions), viscous spreadable chemical applications, lipid-carrier compounds, and potentially non-wet applications of effective chemicals are also contemplated.
Wet runs can also be used as a partial substitute for exercise in a clinical setting, such as for patients who are not physically able to perform stress test exercises. The chemical alone provokes the same general types of differential responses as stress test exercise. For example, in a healthy at-rest individual, acetylcholine alone causes skin capillary dilation, which increases blood perfusion and (because blood is red) causes the skin to become more red. In an unhealthy individual, the acetylcholine alone will cause only low, negligible, or even negative red shift. Thus, the differential reactions to application of acetylcholine (for example) can be used to assess vascular health or the effectiveness of medication even without a stress test.

[3] = tested on: microvascular endothelium (skin, right anterior thigh) of a peripheral artery disease patient; assay: Skin colorimetry (a, b, L) before and after application of “μ” in a peripheral artery disease patient on cilostazol; assay type: in vivo, human; conditions: 50 mg twice a day; for a dry: baseline (dry)
Source text: As stated above, one available quantitative color system is the L*a*b* color space or Hunter L/a/b color space, which can be visualized as a rectangular 3D coordinate system. L indicates lightness, a is the red/green coordinate, and b is the yellow/blue coordinate. L can have a value from 0 (black) to 100 (perfect reflection). The a and b axes have no numerical limits. Coordinate a is positive when red, and negative when green. Positive b is yellow, and negative b is blue. Colors can be described numerically using numerical values for L, a, and b. Differences between two colors can be quantified for each of the individual L/a/b values (ΔL, Δa, Δb). Overall differences between two colors can be derived numerically based on the three Δ values.
μ=drug applied before colorimeter and/or spectrophotometer measurements.
L1, a1, b1=Initial measurement.
L2, a2, b2=Measurement with μ applied. L2−L1=ΔLμ(L2 minus L1)=change in lightness and darkness(+=lighter,−=darker) a2−a1=Δaμ(a2 minus a1)=change in red and green(+=redder,−=greener) b2−b1=Δbμ(b2 minus b1)=change in yellow and blue(+=yellower,−=bluer)
When the arteries in the lower extremities become blocked and stenosed with various disease manifestations such as diabetes, hypercholesterolemia there is an increased amount of claudication that occurs with the lower extremities with minimal exertion. Using the current methodology described herein the patient can ascertain if the effects of the various antiplatelet and statin medication's i.e. Lipitor, Crestor are affective in improving the blood flow to the lower extremities. By taking baseline measurements in the lower extremities in particular locations in the legs such as the anterior tibial surface of a right or left leg, medication can be then administered to the patient. After the corresponding 5 half-lives or more have past of drug “δ” the procedure above can be implemented and test run to determine the a, b, L after drug “μ” has been applied. This information can then be used by calculating the measurements with the equation as described above the change in the colorimetric and spectrophotometric variables that can be derived. This will then allow for the ability of the patient in the healthcare provider to know which drug provides the maximum increase in cardio vascular flow to the area based on the information of the homeostasis of the microvascular endothelial system. The more a percentage change of equal to or greater than 10%, the better the flow that would be understood to be an improvement of the peripheral circulation of that area. It will also allow for the proper titration of medication of that particular area. If it seems to improve the flow then, the patient and the healthcare provider may decide to increase the dosage of the medication to have a better benefit. This will allow for an objective determination of how well the patient is responding to the medication while minimizing the side effects of the drugs.
With reference to the table below and to FIG. 19, the table and the graph show a patient with known peripheral artery disease diagnosed by angiogram in the right distal common femoral artery who is having their right anterior thigh continuously evaluated at the same location for the a, b, L calculations after they were initially started on 50 mg of cilostazol twice a day from December 2016 until August 2017. The values of the of a, b, L, are calculated after “μ” was applied which is shown in color red.

[4] = patients, by body surface area; cited from earlier work

## CC(=O)OCC[N+](C)(C)C [acetylcholine]
[1]; eight arteries with advanced stenosis
  temporary occlusion: temporary occlusion in five

## O=[N+]([O-])OCC(CO[N+](=O)[O-])O[N+](=O)[O-] [nitroglycerin]
[1]; all vessels (normal and diseased)
  vessel response: All vessels dilated
[2]
  efficacy as wet run solution: efficacious

## NC(=O)CC[C@@H]1NC(=O)[C@H](Cc2ccccc2)NC(=O)[C@H](Cc2ccc(O)cc2)NC(=O)[C@@H](N)CSSC[C@@H](C(=O)N2CCC[C@H]2C(=O)N[C@@H](CCCN=C(N)N)C(=O)NCC(N)=O)NC(=O)[C@H](CC(N)=O)NC1=O [vasopressin]
[2]
  efficacy as wet run solution: efficacious

## NCCc1c[nH]c2ccc(O)cc12 [serotonin]
[2]
  efficacy as wet run solution: efficacious

## CCCc1nn(C)c2c(=O)[nH]c(-c3cc(S(=O)(=O)N4CCN(C)CC4)ccc3OCC)nc12 [sildenafil]
[2]
  efficacy as wet run solution: efficacious

## thrombin
[2]
  efficacy as wet run solution: efficacious

## O=C1CCc2cc(OCCCCc3nnnn3C3CCCCC3)ccc2N1 [Cilostazol, cilostazol]
[3]; 9 months monitoring
  effect on blood flow to the microvascular endothelium (a shift after μ): improved blood flow
[3]; April 2017
  L: 70.42
  b: 16.14
  a dry: 5.14
  a wet after “μ”: 7.33
[3]; August 2017
  L: 65.59
  b: 16.8
  a dry: 5.31
  a wet after “μ”: 10.32
[3]; December 2016
  L: 65.09
  b: 15.65
  a dry: 4.58
  a wet after “μ”: 5.35
[3]; February 2017
  L: 71.68
  b: 14.67
  a dry: 4.70
  a wet after “μ”: 7.33
[3]; January 2017
  L: 58.14
  b: 10.51
  a dry: 4.62
  a wet after “μ”: 6.33
[3]; July 2017
  L: 71.63
  b: 14.62
  a dry: 5.15
  a wet after “μ”: 8.95
[3]; June 2017
  L: 66.06
  b: 17.75
  a dry: 5.35
  a wet after “μ”: 9.40
[3]; March 2017
  L: 70.24
  b: 15.42
  a dry: 5.12
  a wet after “μ”: 7.62
[3]; May 2017
  L: 69.91
  b: 15.64
  a dry: 5.02
  a wet after “μ”: 8.06

## Nc1ncnc2c1ncn2[C@@H]1O[C@H](CO)[C@@H](O)[C@H]1O [adenosine]
[2]
  efficacy as wet run solution: efficacious

## COc1cccc2c1C(=O)c1c(O)c3c(c(O)c1C2=O)C[C@@](O)(C(=O)CO)C[C@@H]3O[C@H]1C[C@H](N)[C@H](O)[C@H](C)O1 [Adriamycin]
[4]
  cumulative dose associated with an increased risk of cardiomyopathy: above 550 mg/m2
